Reference: article PMC6364417, “Kinase inhibitor library screening identifies synergistic drug combinations effective in sensitive and resistant melanoma cells” (Journal of Experimental & Clinical Cancer Research : CR, 2019)

Columns and labels:
Test in all cases: Kinase inhibitor library screening, PrestoBlue cell viability, 1 or 10 μM, 72 h
501Mel cells (parental) = test system: 501Mel cells (parental)
Procedure, shortened: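 Parental cells and Vemurafenib-resistant (XP) or Dabrafenib-resistant (GP) derivatives were treated with library kinase inhibitors at 1 and 10 μM for 72 h. Viability measured by PrestoBlue and expressed as % of untreated cells, at least in duplicate.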

IGR37 cells (parental) = details: for Cell viability in kinase inhibitor library screening, IGR37 Parental, 1μΜ / Cell viability in kinase inhibitor library screening, IGR37 Parental, 10μΜ: 72 h; for Cell viability in kinase inhibitor library screening, IGR37 Parental, 1μΜ / Cell viability in kinase inhibitor library screening, IGR37 Parental, 10μΜ / cell viability (kinase inhibitor library screening): in %, IGR37 Parental
[1] = test system: A375-XP cells (Vemurafenib-resistant)
[2] = test system: A375-GP cells (Dabrafenib-resistant); details: for Cell viability in kinase inhibitor library screening, A375 GP, 1μΜ / Cell viability in kinase inhibitor library screening, A375 GP, 10μΜ: 72 h
[3] = test system: IGR37-XP cells (Vemurafenib-resistant); details: for Cell viability in kinase inhibitor library screening, IGR37 XP, 1μΜ / cell viability (kinase inhibitor library screening): in %
[4] = test system: 501Mel-XP cells (Vemurafenib-resistant); details: for Cell viability in kinase inhibitor library screening, 501Mel XP, 1μΜ / Cell viability in kinase inhibitor library screening, 501Mel XP, 10μΜ / cell viability (kinase inhibitor library screening): in %, 501Mel XP
[5] = test system: IGR37-GP cells (Dabrafenib-resistant); details: for Cell viability in kinase inhibitor library screening, IGR37 GP, 10μΜ / Cell viability in kinase inhibitor library screening, IGR37 GP, 1μΜ: 72 h; for Cell viability in kinase inhibitor library screening, IGR37 GP, 1μΜ / cell viability (kinase inhibitor library screening): in %; for Cell viability in kinase inhibitor library screening, IGR37 GP, 10μΜ / Cell viability in kinase inhibitor library screening, IGR37 GP, 1μΜ / cell viability (kinase inhibitor library screening): IGR37 GP
[6] = test system: 501Mel-GP cells (Dabrafenib-resistant); details: for Cell viability in kinase inhibitor library screening, 501Mel GP, 1μΜ / Cell viability in kinase inhibitor library screening, 501Mel GP, 10μΜ / cell viability (kinase inhibitor library screening): in %, 501Mel GP
A375 cells (parental) = details: for Cell viability in kinase inhibitor library screening, A375 Parental, 10μΜ / Cell viability in kinase inhibitor library screening, A375 Parental, 1μΜ: 72 h; for Cell viability in kinase inhibitor library screening, A375 Parental, 10μΜ / Cell viability in kinase inhibitor library screening, A375 Parental, 1μΜ / cell viability (kinase inhibitor library screening): A375 Parental; for cell viability (kinase inhibitor library screening): in %
[7] = 501Mel Parental, 10μΜ, 72 h, in %

Q: Which results are given for `COC[C@H]1OC(=O)c2coc3c2[C@@]1(C)C1=C(C3=O)[C@@H]2CCC(=O)[C@@]2(C)C[C@H]1OC(C)=O` [Wortmannin]?
A: Cell viability in kinase inhibitor library screening, 501Mel Parental, 10μΜ (501Mel cells (parental); [7]): 57.2; Cell viability in kinase inhibitor library screening, IGR37 Parental, 1μΜ (IGR37 cells (parental); 1μΜ): 99.5; Cell viability in kinase inhibitor library screening, IGR37 Parental, 10μΜ (IGR37 cells (parental); 10μΜ): 76.3; Cell viability in kinase inhibitor library screening, A375 XP, 10μΜ ([1]; A375 XP, 10μΜ, 72 h): 67.6; Cell viability in kinase inhibitor library screening, A375 GP, 1μΜ ([2]; A375 GP): 103.2; Cell viability in kinase inhibitor library screening, A375 GP, 10μΜ ([2]; A375 GP, 10μΜ): 72.0; Cell viability in kinase inhibitor library screening, IGR37 XP, 10μΜ ([3]; IGR37 XP, 10μΜ, 72 h): 26.8%; Cell viability in kinase inhibitor library screening, IGR37 XP, 1μΜ ([3]; IGR37 XP, 1μΜ, 72 h): 96.4; Cell viability in kinase inhibitor library screening, 501Mel XP, 1μΜ ([4]; 1μΜ, 72 h): 91.1; Cell viability in kinase inhibitor library screening, 501Mel XP, 10μΜ ([4]; 10μΜ, 72 h): 23.3; Cell viability in kinase inhibitor library screening, IGR37 GP, 10μΜ ([5]; 10μΜ): 22.9%; Cell viability in kinase inhibitor library screening, IGR37 GP, 1μΜ ([5]; 1μΜ): 97.7; Cell viability in kinase inhibitor library screening, 501Mel GP, 1μΜ ([6]; 1μΜ, 72 h): 95.9; Cell viability in kinase inhibitor library screening, 501Mel GP, 10μΜ ([6]; 10μΜ, 72 h): 51.6; Cell viability in kinase inhibitor library screening, A375 Parental, 10μΜ (A375 cells (parental); 10μΜ): 77.1; Cell viability in kinase inhibitor library screening, A375 Parental, 1μΜ (A375 cells (parental); 1μΜ): 109.1

Q: Which viability at 1 µM (501Mel cells (parental); Homo sapiens, 72 h, read-out: cell viability, 501Mel Parental, 1μΜ) does the source give for `O=C(NOC[C@H](O)CO)c1ccc(F)c(F)c1Nc1ccc(I)cc1F` [PD0325901] here?
A: The viability at 1 µM was 56.4%.

Q: And the viability at 10 µM (501Mel cells (parental); Homo sapiens, 72 h, read-out: cell viability, 501Mel Parental, 10μΜ)?
A: The viability at 10 µM was 64.3%.

Q: What about the viability at 1 µM (IGR37 cells (parental); Homo sapiens, IGR-37, 72 h, read-out: cell viability, IGR37 Parental, 1μΜ) of the same compound?
A: The viability at 1 µM was 34.5%.

Q: What about the viability at 10 µM (IGR37 cells (parental); Homo sapiens, IGR-37, 72 h, read-out: cell viability, IGR37 Parental, 10μΜ) of the same compound?
A: The viability at 10 µM was 35.2%.

Q: What about the viability at 1 µM ([1]; Homo sapiens, A-375, 72 h, read-out: cell viability, A375 XP, 1μΜ) of the same compound?
A: Its viability at 1 µM is 11.5%.

Q: And the viability at 10 µM ([1]; Homo sapiens, A-375, 72 h, read-out: cell viability, A375 XP, 10μΜ)?
A: The viability at 10 µM was 11.4%.

Q: What about the viability at 1 µM ([2]; Homo sapiens, A-375, 72 h, read-out: cell viability, A375 GP, 1μΜ) of the same compound?
A: Its viability at 1 µM is 12.6%.

Q: What about the viability at 10 µM ([2]; Homo sapiens, A-375, 72 h, read-out: cell viability, A375 GP, 10μΜ) of the same compound?
A: The viability at 10 µM was 13.1%.

Q: What about the viability at 1 µM ([3]; Homo sapiens, IGR-37, 72 h, read-out: cell viability, IGR37 XP, 1μΜ) of the same compound?
A: The viability at 1 µM was 58.6%.

Q: What about the viability at 10 µM ([3]; Homo sapiens, IGR-37, 72 h, read-out: cell viability, IGR37 XP, 10μΜ) of the same compound?
A: The viability at 10 µM was 15.7%.

Q: What about the viability at 1 µM ([4]; Homo sapiens, 72 h, read-out: cell viability, 501Mel XP, 1μΜ) of the same compound?
A: Its viability at 1 µM is 72%.

Q: And the viability at 10 µM ([4]; Homo sapiens, 72 h, read-out: cell viability, 501Mel XP, 10μΜ)?
A: Its viability at 10 µM is 54.1%.

Q: And the viability at 1 µM ([5]; Homo sapiens, IGR-37, 72 h, read-out: cell viability, IGR37 GP, 1μΜ)?
A: Its viability at 1 µM is 76.5%.

Q: And the viability at 10 µM ([5]; Homo sapiens, IGR-37, 72 h, read-out: cell viability, IGR37 GP, 10μΜ)?
A: Its viability at 10 µM is 46.2%.

Q: What about the viability at 1 µM ([6]; Homo sapiens, 72 h, read-out: cell viability, 501Mel GP, 1μΜ) of the same compound?
A: Its viability at 1 µM is 87.8%.

Q: What about the viability at 10 µM ([6]; Homo sapiens, 72 h, read-out: cell viability, 501Mel GP, 10μΜ) of the same compound?
A: Its viability at 10 µM is 66.1%.

Q: And the viability at 1 µM (A375 cells (parental); Homo sapiens, A-375, 72 h, read-out: cell viability, A375 Parental, 1μΜ)?
A: Its viability at 1 µM is 17.6%.

Q: And the viability at 10 µM (A375 cells (parental); Homo sapiens, A-375, 72 h, read-out: cell viability, A375 Parental, 10μΜ)?
A: The viability at 10 µM was 17.5%.

Q: What does the source list for `COc1cc2nccc(Oc3ccc(NC(=O)NC4CC4)c(Cl)c3)c2cc1C(N)=O` [E7080 (Lenvatinib)]?
A: cell viability (kinase inhibitor library screening) (501Mel cells (parental); 501Mel Parental, 1μΜ, in %): 106.1; cell viability (kinase inhibitor library screening) (501Mel cells (parental); 501Mel Parental, 10μΜ, in %): 105.7; cell viability (kinase inhibitor library screening) (IGR37 cells (parental); 1μΜ): 102.9; cell viability (kinase inhibitor library screening) (IGR37 cells (parental); 10μΜ): 104.3; cell viability (kinase inhibitor library screening) ([1]; A375 XP, 10μΜ, in %): 109.2; cell viability (kinase inhibitor library screening) ([2]; A375 GP, 10μΜ, in %): 94.8; cell viability (kinase inhibitor library screening) ([3]; IGR37 XP, 1μΜ): 97.7; cell viability (kinase inhibitor library screening) ([3]; IGR37 XP, 10μΜ): 58.8; cell viability (kinase inhibitor library screening) ([4]; 1μΜ): 98.9; cell viability (kinase inhibitor library screening) ([4]; 10μΜ): 87.0; cell viability (kinase inhibitor library screening) ([5]; 1μΜ): 97.5; cell viability (kinase inhibitor library screening) ([5]; 10μΜ): 86.5; cell viability (kinase inhibitor library screening) ([6]; 1μΜ): 106.1; cell viability (kinase inhibitor library screening) ([6]; 10μΜ): 90.9; cell viability (kinase inhibitor library screening) (A375 cells (parental); 1μΜ): 103.7; cell viability (kinase inhibitor library screening) (A375 cells (parental); 10μΜ): 95.8

Q: For `COc1cccc2cc(-c3nc([C@H]4CC[C@H](C(=O)O)CC4)n4ncnc(N)c34)[nH]c12` [OSI-027], which “Cell viability in kinase inhibitor library screening, 501Mel Parental, 1μΜ” value (501Mel cells (parental); 501Mel Parental, 1μΜ, 72 h, in %) is on record?
A: The value was 74.7.

Q: And the “Cell viability in kinase inhibitor library screening, 501Mel Parental, 10μΜ” value (501Mel cells (parental); [7])?
A: Its value is 14.4.

Q: And the “Cell viability in kinase inhibitor library screening, IGR37 Parental, 1μΜ” value (IGR37 cells (parental); 1μΜ)?
A: Its value is 84.3.

Q: What about the “Cell viability in kinase inhibitor library screening, IGR37 Parental, 10μΜ” value (IGR37 cells (parental); 10μΜ) of the same compound?
A: The value was 46.6.

Q: What about the “Cell viability in kinase inhibitor library screening, A375 XP, 1μΜ” value ([1]; A375 XP, 1μΜ, 72 h) of the same compound?
A: The value was 55.5.

Q: And the “Cell viability in kinase inhibitor library screening, A375 XP, 10μΜ” value ([1]; A375 XP, 10μΜ, 72 h)?
A: The value was 19.1.

Q: What about the “Cell viability in kinase inhibitor library screening, A375 GP, 1μΜ” value ([2]; A375 GP) of the same compound?
A: Its value is 62.5.

Q: What about the “Cell viability in kinase inhibitor library screening, A375 GP, 10μΜ” value ([2]; A375 GP, 10μΜ) of the same compound?
A: The value was 21.4.

Q: What about the “Cell viability in kinase inhibitor library screening, IGR37 XP, 1μΜ” value ([3]; IGR37 XP, 1μΜ, 72 h) of the same compound?
A: Its value is 72.2.

Q: What about the “Cell viability in kinase inhibitor library screening, 501Mel XP, 1μΜ” value ([4]; 1μΜ, 72 h) of the same compound?
A: Its value is 55.5.

Q: And the “Cell viability in kinase inhibitor library screening, 501Mel XP, 10μΜ” value ([4]; 10μΜ, 72 h)?
A: Its value is 6.8.

Q: And the Cell viability in kinase inhibitor library screening, IGR37 GP, 10μΜ ([5]; 10μΜ)?
A: The Cell viability in kinase inhibitor library screening, IGR37 GP, 10μΜ was 40%.

Q: And the “Cell viability in kinase inhibitor library screening, IGR37 GP, 1μΜ” value ([5]; 1μΜ)?
A: The value was 81.3.

Q: And the “Cell viability in kinase inhibitor library screening, 501Mel GP, 1μΜ” value ([6]; 1μΜ, 72 h)?
A: The value was 59.2.

Q: And the “Cell viability in kinase inhibitor library screening, 501Mel GP, 10μΜ” value ([6]; 10μΜ, 72 h)?
A: The value was 13.9.

Q: What about the “Cell viability in kinase inhibitor library screening, A375 Parental, 10μΜ” value (A375 cells (parental); 10μΜ) of the same compound?
A: Its value is 24.3.

Q: And the “Cell viability in kinase inhibitor library screening, A375 Parental, 1μΜ” value (A375 cells (parental); 1μΜ)?
A: The value was 72.3.
